Measured values: patent US10781204B2, “TYK2 inhibitors and uses thereof” (Nimbus Lakshmi, Inc., priority 2015, dated 2020)

Key:
TYK2 = TYK2 (Homo sapiens (Human), UniProt P29597); assay: Tyk2 radioactive kinase assay; assay type: biochemical; conditions: ATP 10 μM
How it was run: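 Recombinant human TYK2 (Invitrogen) was mixed with 20 μM peptide substrate in a buffer of 20 mM Hepes pH 7.5, 10 mM MgCl2, 1 mM EGTA, 0.02% Brij35, 0.02 mg/mL BSA, 0.1 mM […], 2 mM DTT and 1% DMSO, and compounds in DMSO were added. Adding ^33P-ATP (10 μM ATP) started the reaction, which ran 120 min at room temperature. Mixtures were then spotted onto P81 ion-exchange paper, washed thoroughly in 0.75% phosphoric acid, and counted for radioactivity.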

JAK2 = JAK2 (Homo sapiens (Human), UniProt O60674); assay: JAK2 radioactive kinase assay; assay type: biochemical; conditions: ATP 10 μM
How it was run: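 Radiometric assay in Hepes pH 7.5, MgCl2, EGTA, Brij35, BSA, DTT, 1% DMSO, with 10 μM [33P]ATP, 120 min at room temp; P81 paper capture and counting. […]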

[1] = tested on: Tyk2-pSTAT4 (IL-12 induced pSTAT4); assay: IL-12 induced pSTAT4 in human PBMC; assay type: cell-based; conditions: Homo sapiens, PBMC, 0.5 h, 1.7 ng/mL IL-12, 30 minutes
How it was run: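 pSTAT4 and total STAT4 quantified by MSD in cell lysates after 30 minutes of 1.7 ng/mL IL-12 stimulation. Beforehand, compound (0.1% DMSO final) sat 1 hr at 37 C on 200,000 thawed buffy-coat PBMC per well in serum-containing medium.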

[2] = tested on: JAK2-pSTAT5 (GM-CSF induced pSTAT5); assay: GM-CSF induced pSTAT5 in human PBMC; assay type: cell-based; conditions: Homo sapiens, PBMC, 20 min, 5 ng/mL GM-CSF
How it was run: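 Thawed human PBMC, 200,000 per well in serum-containing medium, were preincubated 1 hr at 37 C with compound in 0.1% DMSO. GM-CSF at 5 ng/mL final was added for 20 minutes, then pSTAT5 and total STAT5 in lysates were measured by MSD immunoassay.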

Chain of TYK2 (P29597 whole entry): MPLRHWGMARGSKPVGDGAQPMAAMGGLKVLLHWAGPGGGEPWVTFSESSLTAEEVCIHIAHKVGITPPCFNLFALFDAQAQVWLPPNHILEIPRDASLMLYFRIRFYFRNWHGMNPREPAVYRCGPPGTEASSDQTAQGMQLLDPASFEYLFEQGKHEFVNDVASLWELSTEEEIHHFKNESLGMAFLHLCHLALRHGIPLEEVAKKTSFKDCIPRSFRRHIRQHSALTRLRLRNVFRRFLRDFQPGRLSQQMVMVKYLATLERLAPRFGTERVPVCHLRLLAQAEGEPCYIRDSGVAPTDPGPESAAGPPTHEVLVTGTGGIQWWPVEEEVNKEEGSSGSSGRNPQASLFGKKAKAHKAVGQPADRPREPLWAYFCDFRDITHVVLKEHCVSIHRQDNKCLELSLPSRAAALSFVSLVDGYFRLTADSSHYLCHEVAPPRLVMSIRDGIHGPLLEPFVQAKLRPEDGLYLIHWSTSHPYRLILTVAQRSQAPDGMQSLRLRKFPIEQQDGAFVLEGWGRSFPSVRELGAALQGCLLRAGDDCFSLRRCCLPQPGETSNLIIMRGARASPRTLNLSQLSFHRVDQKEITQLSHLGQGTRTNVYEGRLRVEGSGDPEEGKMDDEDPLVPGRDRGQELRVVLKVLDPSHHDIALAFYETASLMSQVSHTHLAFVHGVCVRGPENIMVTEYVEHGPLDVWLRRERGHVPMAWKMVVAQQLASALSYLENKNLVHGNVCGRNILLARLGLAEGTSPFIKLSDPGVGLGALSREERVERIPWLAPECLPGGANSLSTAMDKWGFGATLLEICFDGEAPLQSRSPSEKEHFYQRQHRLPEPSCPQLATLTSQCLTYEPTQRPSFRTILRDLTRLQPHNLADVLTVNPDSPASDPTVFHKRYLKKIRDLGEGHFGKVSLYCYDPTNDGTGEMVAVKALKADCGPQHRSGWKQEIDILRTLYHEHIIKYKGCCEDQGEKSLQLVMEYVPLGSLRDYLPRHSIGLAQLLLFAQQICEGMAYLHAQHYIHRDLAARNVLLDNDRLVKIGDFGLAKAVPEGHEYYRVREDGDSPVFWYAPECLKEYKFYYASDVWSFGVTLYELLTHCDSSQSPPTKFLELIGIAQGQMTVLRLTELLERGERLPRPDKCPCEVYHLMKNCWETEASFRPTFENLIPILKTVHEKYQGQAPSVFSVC
Chain of JAK2 (O60674 whole entry): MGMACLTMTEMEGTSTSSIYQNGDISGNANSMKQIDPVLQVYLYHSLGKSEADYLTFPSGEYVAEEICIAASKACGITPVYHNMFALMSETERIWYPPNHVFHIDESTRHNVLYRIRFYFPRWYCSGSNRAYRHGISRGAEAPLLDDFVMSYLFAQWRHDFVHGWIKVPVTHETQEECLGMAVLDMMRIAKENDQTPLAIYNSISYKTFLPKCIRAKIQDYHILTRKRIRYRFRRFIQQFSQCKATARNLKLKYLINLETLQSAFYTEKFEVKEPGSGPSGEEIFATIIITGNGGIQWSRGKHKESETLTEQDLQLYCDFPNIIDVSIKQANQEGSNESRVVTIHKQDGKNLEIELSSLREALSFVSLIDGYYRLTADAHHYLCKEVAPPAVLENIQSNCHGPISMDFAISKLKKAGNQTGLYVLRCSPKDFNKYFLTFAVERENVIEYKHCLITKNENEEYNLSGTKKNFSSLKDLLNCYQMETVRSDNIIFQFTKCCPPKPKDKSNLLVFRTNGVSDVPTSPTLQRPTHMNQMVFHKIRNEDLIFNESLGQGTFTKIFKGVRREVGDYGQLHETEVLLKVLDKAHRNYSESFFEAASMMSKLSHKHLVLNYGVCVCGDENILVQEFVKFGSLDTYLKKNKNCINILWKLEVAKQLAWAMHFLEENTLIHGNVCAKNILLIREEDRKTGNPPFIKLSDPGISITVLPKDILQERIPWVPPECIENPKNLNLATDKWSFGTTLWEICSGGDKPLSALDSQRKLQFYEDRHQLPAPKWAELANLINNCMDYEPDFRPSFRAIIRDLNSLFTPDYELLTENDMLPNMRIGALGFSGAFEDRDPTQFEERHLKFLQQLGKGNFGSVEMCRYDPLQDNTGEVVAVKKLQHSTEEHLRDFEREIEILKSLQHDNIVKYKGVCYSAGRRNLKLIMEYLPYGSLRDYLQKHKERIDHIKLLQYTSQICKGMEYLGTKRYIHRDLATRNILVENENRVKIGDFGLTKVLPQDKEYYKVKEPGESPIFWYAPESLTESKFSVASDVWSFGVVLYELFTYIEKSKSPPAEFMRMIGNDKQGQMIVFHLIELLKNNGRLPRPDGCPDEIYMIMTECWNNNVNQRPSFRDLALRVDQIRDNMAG

Compound | Ki (TYK2) | Ki (JAK2) | EC50 [1] | EC50 [2]
N#Cc1cccc(F)c1-c1cc(-n2ccc(N3CCC[C@H](CO)C3)n2)c2c(n1)CNC2=O [I-98, (S)-3-fluoro-2-(4-(3-(3-(hydroxymethyl)piperidin-1-yl)-1H-pyrazol-1-yl)-5-oxo-6,7-dihydro-5H-pyrrolo[3,4-b]pyridin-2-yl)benzonitrile] | 0.1 to 10 nM | 10 to 100 nM | 30 to 100 nM | 100 to 2000 nM
N#Cc1cccc(F)c1-c1cc(-n2ccc(N3CCC4(C3)OCCO4)n2)c2c(n1)CNC2=O [I-100, 2-(4-(3-(1,4-dioxa-7-azaspiro[4.4]nonan-7-yl)-1H-pyrazol-1-yl)-5-oxo-6,7-dihydro-5H-pyrrolo[3,4-b]pyridin-2-yl)-3-fluorobenzonitrile] | 0.009 to 0.1 nM | 0.1 to 10 nM | 30 to 100 nM | 100 to 2000 nM
N#Cc1cccc(F)c1-c1cc(-n2ccc([C@H]3CCCO3)n2)c2c(n1)CNC2=O [I-103, (R)-3-fluoro-2-(5-oxo-4-(3-(tetrahydrofuran-2-yl)-1H-pyrazol-1-yl)-6,7-dihydro-5H-pyrrolo[3,4-b]pyridin-2-yl)benzonitrile] | 0.1 to 10 nM | 10 to 100 nM | 100 to 2000 nM | 100 to 2000 nM
N#Cc1cccc(F)c1-c1cc(-n2ccc([C@@H]3CCCO3)n2)c2c(n1)CNC2=O [I-104, (S)-3-fluoro-2-(5-oxo-4-(3-(tetrahydrofuran-2-yl)-1H-pyrazol-1-yl)-6,7-dihydro-5H-pyrrolo[3,4-b]pyridin-2-yl)benzonitrile] | 0.1 to 10 nM | 100 to 1000 nM | 100 to 2000 nM | 100 to 2000 nM
C[C@@H]1CC(O)C[C@H](C)N1c1ccn(-c2cc(-c3c(F)cccc3C#N)nc3c2C(=O)NC3)n1 (stereo partly drawn) [I-107, 3-fluoro-2-(4-(3-((2S,6R)-4-hydroxy-2,6-dimethylpiperidin-1-yl)-1H-pyrazol-1-yl)-5-oxo-6,7-dihydro-5H-pyrrolo[3,4-b]pyridin-2-yl)benzonitrile] | 10 to 100 nM | 100 to 1000 nM | 100 to 2000 nM | 100 to 2000 nM
[2H]C1([2H])NC(=O)c2c(-n3ccc(N4CCC[C@@](C)(O)C4)n3)cc(-c3c(F)cccc3C#N)nc21 [I-111, (R)-3-fluoro-2-(4-(3-(3-hydroxy-3-methylpiperidin-1-yl)-1H-pyrazol-1-yl)-5-oxo-6,7-dihydro-5H-pyrrolo[3,4-b]pyridin-2-yl-7,7-d2)benzonitrile] | 0.1 to 10 nM | 10 to 100 nM | 30 to 100 nM | 100 to 2000 nM
C[C@H]1CC[C@H](O)CN1c1ccn(-c2cc(-c3c(F)cccc3C#N)nc3c2C(=O)NC3)n1 [I-112, 3-fluoro-2-(4-(3-((2S,5S)-5-hydroxy-2-methylpiperidin-1-yl)-1H-pyrazol-1-yl)-5-oxo-6,7-dihydro-5H-pyrrolo[3,4-b]pyridin-2-yl)benzonitrile] | 0.1 to 10 nM | 10 to 100 nM | 100 to 2000 nM | 100 to 2000 nM
C[C@H]1CC[C@@H](O)CN1c1ccn(-c2cc(-c3c(F)cccc3C#N)nc3c2C(=O)NC3)n1 [I-113, 3-fluoro-2-(4-(3-((2S,5R)-5-hydroxy-2-methylpiperidin-1-yl)-1H-pyrazol-1-yl)-5-oxo-6,7-dihydro-5H-pyrrolo[3,4-b]pyridin-2-yl)benzonitrile] | 0.1 to 10 nM | 10 to 100 nM | 100 to 2000 nM | 100 to 2000 nM
[2H]C1([2H])NC(=O)c2c(-n3ccc(N4CC[C@@H](O)C4)n3)cc(-c3c(F)cccc3C#N)nc21 [I-114, (R)-3-fluoro-2-(4-(3-(3-hydroxypyrrolidin-1-yl)-1H-pyrazol-1-yl)-5-oxo-6,7-dihydro-5H-pyrrolo[3,4-b]pyridin-2-yl-7,7-d2)benzonitrile] | 0.1 to 10 nM | 0.1 to 10 nM | 30 to 100 nM | 100 to 2000 nM
N#Cc1cccc(F)c1-c1cc(-n2ccc(N3CCC[C@@](N)(C(F)(F)F)C3)n2)c2c(n1)CNC2=O [I-118, (S)-2-(4-(3-(3-amino-3-(trifluoromethyl)piperidin-1-yl)-1H-pyrazol-1-yl)-5-oxo-6,7-dihydro-5H-pyrrolo[3,4-b]pyridin-2-yl)-3-fluorobenzonitrile] | 0.009 to 0.1 nM | 0.1 to 10 nM | 30 to 100 nM | 100 to 2000 nM
N#Cc1cccc(F)c1-c1cc(-n2ccc(N3CCC[C@](N)(C(F)(F)F)C3)n2)c2c(n1)CNC2=O [I-119, (R)-2-(4-(3-(3-amino-3-(trifluoromethyl)piperidin-1-yl)-1H-pyrazol-1-yl)-5-oxo-6,7-dihydro-5H-pyrrolo[3,4-b]pyridin-2-yl)-3-fluorobenzonitrile] | 0.009 to 0.1 nM | 0.1 to 10 nM | 30 to 100 nM | 100 to 2000 nM
CS(=O)(=O)NC1CCN(c2ccn(-c3cc(-c4c(F)cccc4C#N)nc4c3C(=O)NC4)n2)C1 (stereo not shown) [I-120, N-(1-(1-(2-(2-cyano-6-fluorophenyl)-5-oxo-6,7-dihydro-5H-pyrrolo[3,4-b]pyridin-4-yl)-1H-pyrazol-3-yl)pyrrolidin-3-yl)methanesulfonamide] | 0.1 to 10 nM | 0.1 to 10 nM | 100 to 2000 nM | 100 to 2000 nM
N#Cc1cccc(F)c1-c1cc(-n2ccc(N3CCOCC(O)C3)n2)c2c(n1)CNC2=O (stereo not shown) [I-121, 3-fluoro-2-(4-(3-(6-hydroxy-1,4-oxazepan-4-yl)-1H-pyrazol-1-yl)-5-oxo-6,7-dihydro-5H-pyrrolo[3,4-b]pyridin-2-yl)benzonitrile] | 0.1 to 10 nM | 10 to 100 nM | 30 to 100 nM | > 2000 nM
N#Cc1cccc(F)c1-c1cc(-n2ccc(N3CCCC(C(N)=O)C3)n2)c2c(n1)CNC2=O (stereo not shown) [I-122, 1-(1-(2-(2-cyano-6-fluorophenyl)-5-oxo-6,7-dihydro-5H-pyrrolo[3,4-b]pyridin-4-yl)-1H-pyrazol-3-yl)piperidine-3-carboxamide] | 0.1 to 10 nM | 10 to 100 nM | 100 to 2000 nM | 100 to 2000 nM
CC(=O)NC1CCCN(c2ccn(-c3cc(-c4c(F)cccc4C#N)nc4c3C(=O)NC4)n2)C1 (stereo not shown) [I-123, N-(1-(1-(2-(2-cyano-6-fluorophenyl)-5-oxo-6,7-dihydro-5H-pyrrolo[3,4-b]pyridin-4-yl)-1H-pyrazol-3-yl)piperidin-3-yl)acetamide] | 0.1 to 10 nM | 0.1 to 10 nM | 100 to 2000 nM | > 2000 nM
N#Cc1cccc(F)c1-c1cc(-n2cc3c(n2)CNC3)c2c(n1)CNC2=O [I-124, 2-(4-(5,6-dihydropyrrolo[3,4-c]pyrazol-2 (4H)-yl)-5-oxo-6,7-dihydro-5H-pyrrolo[3,4-b]pyridin-2-yl)-3-fluorobenzonitrile] | 10 to 100 nM | 100 to 1000 nM | > 2000 nM | > 2000 nM
N#Cc1cccc(F)c1-c1cc(-n2ccc(N3CCC[C@@H](C(N)=O)C3)n2)c2c(n1)CNC2=O [I-125, (R)-1-(1-(2-(2-cyano-6-fluorophenyl)-5-oxo-6,7-dihydro-5H-pyrrolo[3,4-b]pyridin-4-yl)-1H-pyrazol-3-yl)piperidine-3-carboxamide] | 0.1 to 10 nM | 10 to 100 nM | 100 to 2000 nM | 100 to 2000 nM
N#Cc1cccc(F)c1-c1cc(-n2ccc(N3CCC[C@H](C(N)=O)C3)n2)c2c(n1)CNC2=O [I-126, (S)-1-(1-(2-(2-cyano-6-fluorophenyl)-5-oxo-6,7-dihydro-5H-pyrrolo[3,4-b]pyridin-4-yl)-1H-pyrazol-3-yl)piperidine-3-carboxamide] | 0.1 to 10 nM | 10 to 100 nM | 100 to 2000 nM | 100 to 2000 nM
CC(=O)N[C@@H]1CCCN(c2ccn(-c3cc(-c4c(F)cccc4C#N)nc4c3C(=O)NC4)n2)C1 [I-129, (R)-N-(1-(1-(2-(2-cyano-6-fluorophenyl)-5-oxo-6,7-dihydro-5H-pyrrolo[3,4-b]pyridin-4-yl)-1H-pyrazol-3-yl)piperidin-3-yl)acetamide] | 0.1 to 10 nM | 10 to 100 nM | 100 to 2000 nM | > 2000 nM
CC(=O)N[C@H]1CCCN(c2ccn(-c3cc(-c4c(F)cccc4C#N)nc4c3C(=O)NC4)n2)C1 [I-130, (S)-N-(1-(1-(2-(2-cyano-6-fluorophenyl)-5-oxo-6,7-dihydro-5H-pyrrolo[3,4-b]pyridin-4-yl)-1H-pyrazol-3-yl)piperidin-3-yl)acetamide] | 0.1 to 10 nM | 10 to 100 nM | 100 to 2000 nM | 100 to 2000 nM
N#Cc1cccc(F)c1-c1cc(-n2ccc(N3CCOC[C@@H](O)C3)n2)c2c(n1)CNC2=O [I-131, (S)-3-fluoro-2-(4-(3-(6-hydroxy-1,4-oxazepan-4-yl)-1H-pyrazol-1-yl)-5-oxo-6,7-dihydro-5H-pyrrolo[3,4-b]pyridin-2-yl)benzonitrile] | 0.1 to 10 nM | 10 to 100 nM | 30 to 100 nM | > 2000 nM
CS(=O)(=O)N[C@H]1CCN(c2ccn(-c3cc(-c4c(F)cccc4C#N)nc4c3C(=O)NC4)n2)C1 [I-135, (S)-N-(1-(1-(2-(2-cyano-6-fluorophenyl)-5-oxo-6,7-dihydro-5H-pyrrolo[3,4-b]pyridin-4-yl)-1H-pyrazol-3-yl)pyrrolidin-3-yl)methanesulfonamide] | 0.1 to 10 nM | 0.1 to 10 nM | 100 to 2000 nM | > 2000 nM
